Earlier results on one molecule are cited in US20240366823A1, “INSTANT ACTION AEROSOL FOR AIR SANITIZATION AND DISINFECTION” (Reckitt Benckiser LLC, priority 2021, published 2024).

For data set [1] the following is noted: at 20° C.
For data set [2] the following is noted: ethanol, water.

The structures appear in SMILES notation.

By vapor pressure is commonly meant the equilibrium pressure above the liquid or solid. In the case of `OCCOCCOCCO` [TEG, Triethylene glycol], the vapor pressure in data set [1] is 0.02 Pa. In addition, in data set [2], the solubility result was “soluble in ethanol and miscible with water”.
